Results: ChEMBL document CHEMBL1201862, “PubChem BioAssay data set” (2004)
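Where inhibition never reached the appropriate level, the endpoint shown equals the highest concentration tested. Otherwise, values were interpolated linearly from a five-concentration, 48-hour dose response in 96-well plates. GI50 marks 50% less growth.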 Active and inactive are the calls of the source. No stated cut-off is given here; in the data, active = GI50 up to about 1.1 µM and inactive = higher.

What was measured:
Test in all cases: growth of human tumour cells (NCI), 48 h
ACHN = tested on: ACHN
EKVX = tested on: EKVX
HOP-92 = tested on: HOP-92
HT-29 = tested on: HT-29
IGROV-1 = tested on: IGROV-1
M14 = tested on: M14
MDA-MB-435 = tested on: MDA-MB-435
NCI/ADR-RES = tested on: NCI/ADR-RES
OVCAR-3 = tested on: OVCAR-3
OVCAR-5 = tested on: OVCAR-5
PC-3 = tested on: PC-3
RPMI-8226 = tested on: RPMI-8226
SF-268 = tested on: SF-268
SK-MEL-2 = tested on: SK-MEL-2
SK-OV-3 = tested on: SK-OV-3
SN12C = tested on: SN12C
SR = tested on: SR
UACC-257 = tested on: UACC-257
UACC-62 = tested on: UACC-62
UO-31 = tested on: UO-31

Measured: GI50

O=S(=O)(O)C(CO)c1ccccc1.O=S(=O)(O)Cc1ccccc1 (stereo not given)
inactive: ACHN > 100 µM | EKVX > 100 µM | HOP-92 > 100 µM | HT-29 > 100 µM | IGROV-1 > 100 µM | M14 > 100 µM | MDA-MB-435 > 100 µM | NCI/ADR-RES > 100 µM | OVCAR-3 > 100 µM | OVCAR-5 > 100 µM | PC-3 > 100 µM | RPMI-8226 > 100 µM | SF-268 > 100 µM | SK-MEL-2 > 100 µM | SK-OV-3 > 100 µM | SN12C > 100 µM | SR > 100 µM | UACC-257 > 100 µM | UACC-62 > 100 µM | UO-31 > 100 µM

COc1cccc(C2c3cc4c(cc3OC(N3CCCCC3)C2C)OCO4)c1O (stereo not given)
inactive: ACHN 6.55 µM | EKVX 14.7 µM | HOP-92 8.18 µM | HT-29 3.43 µM | IGROV-1 8.81 µM | M14 4.2 µM | MDA-MB-435 1.75 µM | NCI/ADR-RES 5.12 µM | OVCAR-3 2.93 µM | OVCAR-5 17.7 µM | PC-3 4.83 µM | RPMI-8226 3.21 µM | SF-268 9.71 µM | SK-MEL-2 9.16 µM | SK-OV-3 6.79 µM | SN12C 4.69 µM | SR 3.01 µM | UACC-257 8.04 µM | UACC-62 5.92 µM | UO-31 12.4 µM

C[C@]12C[C@@H](c3ccccc3)Nc3ccccc3N1C(c1ccccc1)=NO2
inactive: ACHN 33.9 µM | EKVX 24.3 µM | HOP-92 18.5 µM | HT-29 30.6 µM | IGROV-1 38.1 µM | M14 32.5 µM | MDA-MB-435 24.5 µM | NCI/ADR-RES 45.1 µM | OVCAR-3 46.8 µM | OVCAR-5 33.2 µM | PC-3 43 µM | RPMI-8226 20.3 µM | SF-268 88.5 µM | SK-MEL-2 25.6 µM | SK-OV-3 > 100 µM | SN12C 49.3 µM | SR 1.8 µM | UACC-257 33.8 µM | UACC-62 33.4 µM | UO-31 29.6 µM
